Source: the METLIN SMRT retention time set (Domingo-Almenara et al. 2019)

Test: gradient 5% acetonitrile 3 min, to 50% in 2 min, to 85% in 15 min, held 3 min, 100 µL/min
Settings: column: Zorbax Extend-C18 2.1 x 50 mm; eluents: water / acetonitrile, 0.1% formic acid
In short: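 Mixtures of ~100 pure standards were chromatographed on a Zorbax Extend-C18 column (2.1 × 50 mm, 1.8 μm) at 100 μL/min using water and acetonitrile, each with 0.1% formic acid. Detection used a quadrupole time-of-flight mass spectrometer in positive and negative ionization mode, and data collection spanned 3 months. Retention time was obtained from adduct peaks picked computationally and each checked manually.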

Row | RP-LC retention time [s] | Structure (SMILES)
1 | 810 | COC(=O)CNC(=O)Nc1ccccc1-c1cc2ccccc2[nH]1
2 | 626 | COc1nn(C)cc1C(=O)NCC(=O)NCCOc1ccc(F)cc1
3 | 1270 | CCN(CC)c1nc2cc(C(=O)OC)ccc2c(=O)n1-c1ccc(C)c(C)c1
4 | 1000 | Clc1ccc(-c2nnc(Cc3nc(-c4cccs4)no3)o2)cc1
5 | 832 | COc1ccc(-c2c(C)noc2NC(C)=O)cc1S(=O)(=O)Nc1ccc(C)cc1Br
6 | 918 | Cn1c(=O)c(N2CCCC(C(=O)N3CCCCCC3)C2)nc2cccnc21 (centres undefined)
7 | 605 | O=C(NCCN1CCN(C(=O)NC(c2ccccc2)c2ccccc2)CC1)c1ccsc1
8 | 1080 | Cc1cccc(CN2CCCN(CC(=O)NC(C)CCc3ccccc3)S2(=O)=O)c1 (centres undefined)
9 | 858 | COc1ccc(NC(=O)c2cnc3c(c2)c(=O)n(C)c(=O)n3-c2ccccc2)cc1F
10 | 1090 | CCOc1ccccc1NC(=O)CN1c2ccc(F)cc2-c2ccccc2S1(=O)=O
11 | 940 | Cc1nc(-c2cn(C)c3ncccc23)sc1C(=O)Nc1ccc(F)c(F)c1
12 | 748 | CN(C)c1nc2ncn3c(=O)n(CC(=O)Nc4ccc(Cl)cc4F)nc3c2s1
13 | 624 | CCN(CC)C(=O)c1cc(=O)[nH]c2ccccc12
14 | 937 | COc1ccc(-c2noc(C3CCCN3C(=O)c3cc(F)cc(F)c3)n2)cc1OC (centres undefined)
15 | 1090 | O=c1ccc(-c2ccccc2)nn1CCc1nc(-c2cccc(Br)c2)no1
16 | 846 | Cc1cccc(-n2c(=O)c3c(cc(C)n3C)n(CC(=O)Nc3cccc(C#N)c3)c2=O)c1
17 | 959 | CC(C)c1noc(-c2cc(=O)n(CC(=O)NCc3ccccc3F)c3ccccc23)n1
18 | 898 | COC(=O)C1=CN(c2cc(F)ccc2C)c2ccc(F)cc2S1(=O)=O
19 | 671 | CCc1ccc(CN(CC(=O)N2CCNCC2)C(=O)c2sccc2C)cc1
20 | 611 | O=C(c1ccncc1)N1CCC2(CC1)N=C(c1ccccc1)NO2
21 | 943 | CC(C)Oc1ccc(CNC(=O)c2nnc(-c3ccc(S(=O)(=O)N(C)C)cc3)o2)cc1
22 | 784 | O=C([C@@H]1C[C@H](Oc2ccccc2)CN1C(=O)C1CCCC1)N1CCCC1
23 | 629 | Cc1cc(=O)n(CC(=O)Nc2ccc3c(c2)OCO3)c(N2CCCC2)n1

Row | RP-LC retention time [s] | Structure (SMILES)
24 | 583 | COC(=O)c1c(NCCN2CCC(C)CC2)c2cccc(Cl)c2[nH]c1=O
25 | 1010 | Cc1ccc(C)c(N2CCN(c3ccnc(SCC(=O)Nc4ccccc4F)n3)CC2)c1
26 | 603 | CC(=O)N1CCC(n2c(C)nc(C(=O)Nc3ccc4c(c3)OCO4)c2C)CC1
27 | 847 | Cc1cccc(OCC(=O)N2CCc3cc(-c4csc(C)n4)ccc32)c1
28 | 588 | Cc1noc(C)c1S(=O)(=O)N1CC(c2nc(Cc3cccnc3)no2)C1
29 | 620 | CCCNc1cc(N2CCC(CCC(=O)N3CCN(C(=O)OCC)CC3)CC2)ncn1
30 | 669 | COCCC(=O)N1CCCN(C2=NS(=O)(=O)C(c3ccccc3)=C2C)CC1
31 | 818 | Cc1cccc(-c2noc(C3CCCN3C(=O)NCC3CCCO3)n2)c1 (centres undefined)
32 | 1010 | Cc1ccc(N2CC(c3noc(-c4ccc(F)cc4)n3)CC2=O)cc1 (centres undefined)
33 | 1170 | CCc1nc2cc(-c3noc(-c4ccc(OC)c(F)c4)n3)ccc2o1
34 | 749 | CCCc1nc(-c2ccnc(N3CCOCC3)c2)no1
35 | 898 | Cc1ccc(N2CCC(NC(=O)Nc3ccccc3C(F)(F)F)C2=O)cc1 (centres undefined)
36 | 1250 | Cc1ccc(-c2csc(Nc3ccc(Br)cn3)n2)cc1
37 | 853 | O=c1n(Cc2ccccc2Cl)nc2c(S(=O)(=O)N3CCCC3)cccn12
38 | 1230 | Cc1ccc(Cl)cc1NC(=O)Cc1c(C)nn(-c2nc(-c3ccccc3)cs2)c1C
39 | 626 | CCC(=O)N1CCc2cc(C(=O)NC)ccc21
40 | 770 | NC(=NCc1ccc(Cl)cc1Cl)NC(=O)c1nc(Cl)c(N)nc1N
41 | 658 | Cc1c(NC(=O)c2cccc3c2-c2ccccc2C3=O)c(=O)n(-c2ccccc2)n1C
42 | 870 | COc1ccc(N2C(=O)N[C@@H]3C[C@]2(C)Oc2ccc(C)cc23)c(OC)c1
43 | 1170 | O=C(NCc1ccc(Cl)cc1)c1cc2sccc2n1Cc1ccc(F)cc1
44 | 869 | CCC(=O)Nc1cccc(-c2noc(C3CCN(C(=O)CCc4c[nH]c5ccccc45)CC3)n2)c1
45 | 794 | COc1cccc(S(=O)(=O)N2CCC(c3nc(C(=O)N4CCOCC4)c(C)o3)CC2)c1
46 | 548 | COCCNC(=O)c1coc(NC(=O)c2cnccn2)n1

Row | RP-LC retention time [s] | Structure (SMILES)
47 | 932 | Cc1ccc(-c2nc(N3CC(C)CC(C)C3)c3ccccc3n2)cc1 (centres undefined)
48 | 549 | O=C(NCCN1CCOCC1)C(=O)Nc1ccccc1Cl
49 | 758 | CN(C)S(=O)(=O)N1CCC(c2nnc(C(F)(F)F)o2)CC1
50 | 600 | O=C(CSc1nccn1Cc1ccco1)Nc1ccccc1F
51 | 606 | O=C(NC1CCCN(c2cc(N3CCCC3)ncn2)C1)c1ccccn1 (centres undefined)
52 | 1050 | CC1CCN(S(=O)(=O)c2cc(C(=O)N3CCN(c4ccccc4F)CC3)n(C)c2)CC1
53 | 785 | CC(C)c1nc(CNC(=O)c2ccc(Cl)cc2)no1
54 | 573 | O=C(NCCCN1CCCCC1)C1CN(S(=O)(=O)c2cccnc2)CC12CCCCC2 (centres undefined)
55 | 997 | O=c1c2cnc3nc(-c4ccccc4)nn3c2ccn1CCc1c[nH]c2ccc(Cl)cc12
56 | 716 | O=C(Nc1ccccc1)N1CCN(Cc2nc3cc(Cl)ccc3o2)CC1
57 | 607 | O=C(CN1CCN(C(=O)c2sc3ncccc3c2-n2cccc2)CC1)N1CCCC1
58 | 606 | Cc1ccc(C(=O)NC2CCN(c3ncnc4c3CCC4)C2)s1 (centres undefined)
59 | 1060 | Cn1nnc2ccc(-c3noc(-c4cc(F)ccc4Cl)n3)cc21
60 | 882 | CCOc1ccc(NC(=O)C2CCN(c3c(C(=O)N(CC)CC)cnc4snc(C)c34)CC2)cc1
61 | 776 | COc1cc(-c2ccccc2)nc2ccc(NC(=O)COc3ccc(F)cc3)cc12
62 | 752 | Cc1cccc(S(=O)(=O)N2CCN(c3cnn4c(C5CC5)nnc4c3)CC2)c1
63 | 885 | OC(CN1CCN(c2cccc(Cl)c2)CC1)C(c1ccccc1)c1ccccc1 (centres undefined)
64 | 729 | Cc1cccc(S(=O)(=O)Nc2cccn3ncnc23)c1
65 | 732 | CCc1cnc2c(c1SCC(=O)N1CCCC1)c(=O)n(C)c(=O)n2C
66 | 665 | O=C(Nc1ccc2ncnc(N3CCCCC3)c2c1)c1cncc(Br)c1
67 | 837 | COc1ccc(OC)c(NC(=O)NC2CCN(c3ccc(C)cc3)C2=O)c1 (centres undefined)
68 | 688 | COc1ccc2cc(C(=O)N3CCCN(c4cc(=O)n(C)c(=O)n4C)CC3)[nH]c2c1
69 | 693 | Cc1cc(N2CCCC2)nc(N2CCN(C(=O)C3CCCCC3)CC2)n1

Row | RP-LC retention time [s] | Structure (SMILES)
70 | 1040 | Cc1sc(NC(=O)C2CCCCC2)nc1-c1ccc2c(c1)N(C)C(=O)CO2
71 | 732 | CCSc1nnc(-c2nn(C)c3c2CN(C(=O)c2ccccc2F)CC3)n1C
72 | 1310 | Cc1cc(Cl)ccc1OCC(=O)Nc1nc(-c2ccc(Br)cc2)cs1
73 | 940 | Cn1c(=O)n(C)c2cc(S(=O)(=O)C3CCCCC3)c(NC(=O)c3ccccc3F)cc21
74 | 984 | CCn1cc2c3c(cccc31)CN(C(=O)Nc1ccc(SC)cc1)CC2
75 | 534 | CCC(=O)N1CCN(c2nc3c(s2)CC(C(=O)NCC(C)C)CC3)CC1 (centres undefined)
76 | 895 | O=C(NCc1cccc(Br)c1)c1nc(Cn2c(=O)oc3ccccc32)no1
77 | 796 | COc1cc(-c2nc(Nc3ccc(C)cc3)c3ccccc3n2)cc(OC)c1OC
78 | 699 | COc1ccc(NC(=O)Cn2cnc(-c3nc(C)cs3)c2)cc1Cl
79 | 578 | O=C(CC1CCOC2(CCN(Cc3cccs3)CC2)C1)NC1CC1 (centres undefined)
80 | 888 | Cc1ccc(S(=O)(=O)Nc2ccc(Nc3cc(-n4cccn4)ncn3)cc2)c(C)c1
81 | 699 | Cc1ccc2nc(N3CCN(c4ccccc4)CC3)c(-c3noc(C)n3)cc2c1
82 | 742 | Cc1ccc(-c2cc3c(=O)n(Cc4noc(CN5CCC(C)CC5)n4)ccn3n2)c(C)c1
83 | 807 | COc1cccc(N2CCN(C(=O)C3CCN(c4nnc(-c5ccccc5)o4)CC3)CC2)c1
84 | 742 | COc1ccc(-c2nc(-c3ccc4c(c3)ncn4CCC(=O)N3CCCC3)no2)cc1
85 | 899 | Cc1ccccc1C(=O)Nc1ccc(C(=O)N2CCCC(O)c3cc(Cl)ccc32)c(C)c1 (centres undefined)
86 | 1080 | Cn1cccc1CN(C(=O)CC(c1ccccc1)c1ccccc1)C1CC1
87 | 764 | COc1ccc(Cl)cc1S(=O)(=O)NCCc1cn(C)c2ncccc12
88 | 788 | CN1C(=O)c2ccccc2Oc2ccc(C(=O)NCc3ccco3)cc21
89 | 621 | CN(C)c1ccc2c(c1)CN(C(=O)Cn1c(=O)oc3ccccc31)CCO2
